What was measured:
U251 neuroglioma cells = test: Lentiviral overexpression of 45aa-uORF in U251 cells: cell cycle, CCK-8 growth curve, clone formation assay, soft agar; assay type: cell-based; settings: stably overexpressed via lentivirus vector vs U251-GFP control cells
Protocol: A vector for overexpressed 45aa-uORF-GFP (the skeleton of the vector is pCDH-CMV-MCS-EF1-Puro) was constructed and then used to transfect into HEK-293T cells together with lentivirus skeleton vectors PSPAX2, PMD2G in a ratio of 1:3:1 to package the lentivirus. The medium supernatants with the lentivirus were collected at 48 hours and 72 hours, respectively, and then used to infect U251 cells (added with 8 μg/ml polybrene to improve the infection efficiency). Puromycin ([…]) was employed for screening and removed three days later, and then the cells were proliferated normally. […]
1.5 Million U251 glioma cells of lentivirus overexpressed 45aa-uORF were inoculated into a T25 culture flask. […] Then, after being centrifuged and washed with PBS once, the precipitate was resuspended in 25 μg/mL Propidium Iodide (PI, sigma)/PBS solution, stained for 30 minutes away from light, and then detected on cell-cycle distribution thereof.
U251-GFP control cells or U251-45aa-uORF-GFP cells were inoculated into a 96-well plate in a quantity of 2000 cells per well. […] After cell adherence to the wall, the CCK-8 (Dojindo, CK04) reagent was added by 10 μL per well every 24 hours for culture at 37° C. for 1-4 hours, and then the absorbance (OD) of […] was detected. The absorbance value was directly proportional to the number of cells. […]

[1] = tested on: U251 neuroglioma transplanted tumors; test: U251 tumor subcutaneously implanted in nude mice, intratumoral peptide injection; assay type: in vivo; settings: 25 μg/tumor every other day, 5-6 medications, vs control polypeptide of shuffled sequence
Protocol: In one aspect, the anti-tumor ability of the 45aa-uORF coded micropeptide is verified in vivo by animal experiments in the present invention. Mice are subcutaneously inoculated with 2 million U251 neuroglioma cells. Thirty days later, transplanted tumors are treated with the chemically synthesized 45aa-uORF coded micropeptide (25 ug/tumor) every other day.
U251 cells were inoculated to the left and right sides of nude mice by 2 million at each point. Thirty days later, the formation of tumors was observed, and the tumors were averagely divided into a control group and an experimental group by size (five nude mice and ten tumors in each group). The control group was injected with a control polypeptide every other day, and the experimental group was injected with the 45aa-uORF polypeptide every other day. Each tumor was injected with 25 μg synthetic peptide. The long diameters and short diameters of the tumors were measured before the medication, and after 5-6 times medications, the nude mice were sacrificed, and tumors were taken out, photographed and weighed. Tumor volume=½*long diameter*the square of short diameter

U251 cells [2] = test: Ability of FITC-labelled micropeptide to enter cells (fluorescence microscopy); assay type: cell-based; settings: FITC-attached micropeptide, 20 μM, 4 hours
Protocol: U251 cells were inoculated onto a glass slide at the density of 50%, and different concentrations of PTEN-45aa micropeptide t attached with FITC fluorescent groups (the micropeptide was dissolved in DMSO with a concentration being 20 μg/μL) were added to treat cells for 4 hours, then fixed with Faure Marin, and observed and photographed under a fluorescence microscope.

U251 cells [3] = test: Cell viability with CCK-8 after adding chemically synthesized polypeptide; assay type: cell-based; settings: 25 μM, washed out after 4 hours, culture for 72 hours
[4] = listed as 45aa-uORF coded polypeptide

## MRDGGGRGPEPLSAPVSSRGGSALGEPAGLRRRQRRRFSPPLRLF (listed as Homo sapiens) [PTEN-45aa, oligopeptide of 45 amino acids coded by the 45aa-uORF in the 5′UTR of human PTEN gene]
U251 neuroglioma cells
  growth and proliferation of U251 glioma cells: significantly suppress the growth and proliferation
U251 neuroglioma cells; two weeks
  clone formation of U251 neuroglioma cells (CFA, soft agar): significantly suppress the growth, proliferation and clone formation
[1]
  growth and formation of U251 transplanted tumors: significantly suppress the growth and formation of the tumors
U251 cells [2]; [4]
  ability of the micropeptide to enter cells: can enter U251 cells
U251 cells [2]; listed as PTEN-45aa micropeptide
  ability of the micropeptide to enter cells: could enter the U251 cells smoothly
U251 cells [3]; listed as 45aa-uORF coded micropeptide
  growth and proliferation of glioma cells (cell viability, CCK-8): significantly suppress the growth and proliferation
U251 cells [3]; [4]
  growth and proliferation of glioma cells (cell viability, CCK-8): significantly suppress the growth of glioma cells
